Data: publication PMC4450091 (JOM (Warrendale, Pa. : 1989), 2015)
Where no end group is shown, it is not given here.

How the values were obtained:
[1] = system: Escherichia coli ATCC 2592; type: cell-based; conditions: ATCC 2592, 24 h
[2] = system: Streptococcus mutans ATCC 25175; type: cell-based; conditions: ATCC 25175, 24 h

| Sequence | Minimum inhibitory concentration (MIC), E. coli [1] [µM] | Minimum inhibitory concentration (MIC), S. mutans [2] [µM] |
| --- | --- | --- |
| RPRENRGRERGLGGGKWKRWWWWR [TiBPS1-AMP2] | 80.8 | – |
| SRPNGYGGSESSGGGLKLLKKLLKLLKKL [TiBPS2-AMP1] | – | 336.5 |
| HAYKQPVLSTPFGGGKWKRWWWWR [TiBPS3-AMP2] | 167.4 | – |
